In brackets after ≈: the same amount, converted by molar mass.
Key:
[1] = Equilibrium aqueous solubility of PP10 and polymeric-PP10 binary systems; format: physicochemical; details: distilled water, 25 °C
Experimental: The equilibrium solubility of pure PP10 and the three polymeric drug binary systems with PVP-K90, Eudragit L100-55, or HP-β-CD were studied to investigate the effect of the complexation on the aqueous solubility of PP10. An excess quantity of the pure drug or the prepared binary systems was added to 5 mL of distilled water in a screw-capped vial and transferred to a thermostatically controlled shaking water bath (Model 1031; GFL Corporation, Burgwedel, Germany) at 25 ± 0.5 °C for 72 h. […] Drug stock solution was prepared in methanol and different standard drug solutions in the range of 2–10 µg/mL were prepared. The absorbance of the prepared standard solutions was measured, resulting in a correlation coefficient (R^2) of 0.9986.

[2] = Stability of PP10 at different pHs (HPLC, MASS scan); format: physicochemical
Experimental: The parent PP10 could hydrolyze into the corresponding PP10-acid either chemically (acid/base hydrolysis) or by the action of esterase in the blood, which could affect the PK and/or PD properties. This potential hydrolysis behavior was studied by investigating the stability of the parent methylester compound in buffer at different pHs, and in blood. To examine potential chemical degradation, a solution of PP10 (2 mg/mL) was prepared in methanol. Known volume (1 mL) of this methanol solution was diluted with a definite volume (20 mL) of buffer at pH 1.2, 5.5, or 7.4, corresponding to the gastric pH, the pH of the proximal small intestine, and the pH of the terminal ileum or physiological body fluids, respectively. Methanolic drug solution of the same concentration was also prepared as a reference. The different pH mixtures were incubated in a water bath at 37 °C overnight. The high-performance liquid chromatography (HPLC) chromatogram of the parent compound (methanolic drug solution) was compared with the corresponding drug buffer samples. The molecular weight of degraded product(s) was investigated using MASS scan. Details of the apparatus and conditions are described below.

[3] = Pharmacokinetics study in rats, whole blood PP10-acid; format: in vivo, Sprague-Dawley rats; details: rat, all analyses
Experimental: A single-dose one-period parallel design was utilized to investigate the pharmacokinetics of pure PP10, the polymeric-PP10 binary systems with PVP-K90 and HP-β-CD, and the PP10-TPGS aqueous micelle solution formulation. The study was conducted according to the guidelines of Good Clinical Practice (GCP), the International Conference on Harmonization (ICH), and the European Medicines Agency (EMA). The protocol for the animal study received prior approval from the Research Ethics Committee, Faculty of Pharmacy, King Abdulaziz University, Saudi Arabia (reference no. PH-1442-68) in 04/03/2021.
Male Sprague-Dawley rats (300–350 g) were used. The animals were maintained on a 12 h light/dark cycle (lights-on at 7 a.m.) with free access to food and water in a temperature-controlled room. After 7 days of acclimatization, animals were classified into four groups (n = 6). Group I was administered oral drug tablets containing pure drug (positive control). Group II was given oral drug tablets containing PP10-PVP K90 binary system. […]
The concentration of the parent PP10 and PP10-acid metabolite in the whole blood samples were determined using a gradient elution HPLC chromatographic condition using a Waters Symmetry Shield C18 (Waters, MA, USA), 5 µm 3.9 × 150 mm column, and a Waters 2998 PDA detector (Waters, MA, USA) with detection wavelength adjusted to 274 nm. […]

[4] = tested on: sickle red blood cell (SS blood); assay: In vitro antisickling study with sickle whole blood; format: cell-based, human; details: for antisickling effect (RBC sickling inhibition): SS blood HCT 20%, 0.5, 1 and 2 mM, hypoxia 2.5% O2
Experimental: (§1) The parent PP10, its acid metabolite PP10-acid, and the sodium salt PP10-NaSalt were tested using homozygous sickle cell (SS) blood for their pharmacologic activities. Leftover blood samples from individuals with SS were obtained (based on an approved IRB protocol at the Children’s Hospital of Philadelphia, with informed consent) and used for in vitro antisickling, Hb modification, and oxygen equilibrium studies following methods previously published by our group. For the antisickling study, SS blood samples (hematocrit 20%) were incubated under air in the absence or presence of PP10, PP10-acid, or PP10-NaSalt (0.5 mM, 1 mM, and 2 mM) at 37 °C for 1 h, followed by incubation of the mixture under hypoxic conditions (2.5% O2/97.5% N2) at 37 °C for 2 h. Aliquots were fixed with 2% glutaraldehyde solution in sodium cacodylate buffer, pH 7.4, without exposure to air, and then subjected to microscopic morphological analysis of bright field images (at 40× magnification) of single layer cells on an Olympus BX40 microscope fitted with an Infinity 2 camera and coupled with Image Capture cellSens software (Olympus, Tokyo, Japan).

[5] = molecular target: T1, HbS (Homo sapiens, UniProt P68871+P69905, E7V); assay: Hb modification (Hb adduct formation), cation-exchange HPLC; format: cell-based; details: SS blood, 0.5, 1 and 2 mM
T1 construct: tested using homozygous sickle cell (SS) blood for their pharmacologic activities; from tissue; host or cells: Whole blood (red blood cells) from individuals with homozygous sickle cell disease
Experimental: as §1, with “Aliquots were fixed with 2% glutaraldehyde solution in sodium cacodylate buffer, pH 7.4, without exposure to air, and then subjected to microscopic morphological analysis of bright field images (at 40× magnification) of single layer cells on an Olympus BX40 microscope fitted with an Infinity 2 camera and coupled with Image Capture cellSens software (Olympus, Tokyo, Japan).” left out
(§2) Residual samples from the above study were washed in phosphate-buffered saline and hemolyzed by hypotonic lysis in deionized water for the oxygen equilibrium and Hb modification (Hb adduct formation) studies. […] The areas of new peaks, representing HbS adducts, were obtained, calculated as percentages of total Hb area, and reported as levels of modified Hb or Hb adduct. […] Degree of Hb O2 affinity shift (ΔP50) was expressed as percentage of control DMSO-treated samples.

[6] = set-up: method as in PMID 33205981; details: in vitro, whole blood; cited from earlier work
[7] = tested on: Hb; assay: Hb oxygen equilibrium study (Hemox Analyzer, P50 shift); format: cell-based, human; details: 2 mM, SS blood
Experimental: as §1, with “Aliquots were fixed with 2% glutaraldehyde solution in sodium cacodylate buffer, pH 7.4, without exposure to air, and then subjected to microscopic morphological analysis of bright field images (at 40× magnification) of single layer cells on an Olympus BX40 microscope fitted with an Infinity 2 camera and coupled with Image Capture cellSens software (Olympus, Tokyo, Japan).” left out
as §2

Row | solubility at 72 h [1] [µg/mL] | stability (hydrolysis to PP10-acid) ([2]; buffer pH 1.2, 37 °C overnight) | stability (hydrolysis to PP10-acid) ([2]; buffer pH 5.5, 37 °C overnight) | stability (hydrolysis to PP10-acid) ([2]; buffer pH 7.4, 37 °C overnight) | stability ([2]; straight methanol, 37 °C overnight) | Compound | parent PP10 compound in whole blood after dosing [3] | inhibition at 2000 µM ([4]; Homo sapiens, Erythrocyte, 2 mM, SS blood, read-out: RBC sickling inhibition more than PP10-acid) [%] | antisickling effect (RBC sickling inhibition) [4] | Hb adduct formation [5] | parent PP10 hydrolyzed into the PP10-acid metabolite [6] | increase of Hb oxygen affinity compared with the ester (PP10) [7]
1 | 12 ± 2 (≈ 41.8 µM) | most significant degradation | degrades into the acid form | degrades into the acid form | stable | COC(=O)c1cccc(COc2cccc(O)c2C=O)n1 [PP10, Methyl 6-((2-formyl-3-hydroxyphenoxy)methyl) picolinate] | No parent PP10 compound (PP10) was observed in any of the analyses | 36 | dose-dependent antisickling effect | highest Hb adduct formation | about 20% | –
2 | – | – | – | – | – | O=Cc1c(O)cccc1OCc1cccc(C(=O)[O-])n1.[Na+] [PP10-NaSalt] | – | – | almost no activity | significantly less adduct formation | – | –
3 | – | – | – | – | – | O=Cc1c(O)cccc1OCc1cccc(C(=O)O)n1 [PP10-acid] | – | – | dose-dependent antisickling effect | – | – | about 30%
